# Data published in US20200024278A1, “COMPOSITION COMPRISING ANTIBIOTIC COMPOUND AND AN HETEROCYCLIC COMPOUND AND THEIR USE IN PREVENTING OR TREATING BACTERIAL INFECTIONS” (MUTABILIS, priority 2016, published 2020).
# Where two headings read alike, the source gives them in different places.
# Tested on: PAE 27853
# Type: cell-based, P. aeruginosa
# Settings: tntbc: Too numerous to be counted
# Procedure: Method 4: Determination of the Spontaneous Mutation Frequency of the Compounds Alone and Combined with Antibiotics.
# Bacterial isolates (Table 3) were grown overnight at 35° C. on TSA plates (Becton-Dickinson and Company) in ambient air. After 24 h of incubation, isolated bacterial colonies were added to cation-adjusted Mueller-Hinton broth (ca-MHB; Becton-Dickinson and Company) and cultured for approximately 6 h at 35° C. The pre-culture was stopped once bacteria have reached an OD600 nm of 0.5 for 200 μL. The bacterial suspension was centrifuged at 4000 rpm for 20 min. The supernatant was then discarded and the bacterial pellet was dissolved in ca-MHB to obtain 10^9 to 10^10 CFU/mL. Assays including Fosfomycin were supplemented with 25 μg/ml of Glucose-6-phosphate. 100 μL of the adjusted bacterial suspension were spread on agar plates containing different concentrations of the compounds of the present invention alone or combined with an antibacterial (Table 1). The plates were incubated for 24-48 h at 35° C. in ambient air. CFU were numerated on each agar plate containing compound. The number of resistant colonies obtained was divided by the starting inoculum to give the frequency of spontaneous resistance for a given incubation time (24 and 48 h).
structure (smiles),measurement,setting,value
"O=C(O)c1cn(C2CC2)c2cc(N3CCNCC3)c(F)cc2c1=O [CIP, Ciprofloxacin]",Frequency of spontaneous resistance,single agent at 4.MIC,5.1E−08
same,Frequency of spontaneous resistance,single agent at 8.MIC,4.0E−09
